Experimental data reported in patent publication US10294212B2 (CURADEV PHARMA PRIVATE LTD., priority 2013, dated 2019).
Where a name gives a salt, the structure may show the parent alone.

Experiments:
[1] = biological target: Human indoleamine 2,3-dioxygenase1 (hIDO1) (Homo sapiens (Human), UniProt P14902); experiment: In-vitro IDO1 enzyme assay (conversion of L-tryptophan to KYN); assay type: biochemical; conditions: read-out: IC50 (IDO1) Enz
Method in brief: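 Kynurenine formation quantified by HPLC absorbance at 360 nm or LC/MS/MS after TCA quench and 15 min at 65 °C. Reaction: 10 nM N-His hIDO1, 30 μM tryptophan, ascorbate/methylene blue/catalase, pH 6.5 phosphate buffer, 37 °C for 30 min. Inhibition relative to 1% DMSO vehicle, fitted to IC50.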

IDO1 in HeLa cells = IDO1 in HeLa cells (Homo sapiens (Human), UniProt P14902); experiment: HeLa cell based IDO1 assay (IFNγ-induced, KYN in supernatant)
Method in brief: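 Kynurenine in the supernatant, quantified by C-18 HPLC with 360 nm absorbance after TCA hydrolysis (65 °C, 15 min), was the read-out. Compounds (typically 10 μM to 1 nM) were added in HBSS containing 80 μM tryptophan to HeLa cells pre-induced overnight with 50 ng/mL IFNγ. IC50 came from nonlinear fits of % inhibition versus 1% DMSO vehicle.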

[2] = biological target: Human TDO (hTDO)-transfected CHO-K1 cells (Homo sapiens (Human), UniProt P48775); experiment: CHO-K1 cell based TDO assay; conditions: hTDO cellular assay
Method in brief: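 Kynurenine output was read by LC/MS/MS after TCA precipitation and 15 min at 65° C. Before that, CHO-K1 cells stably carrying human TDO2 were incubated 2 h with compounds (typically 31 μM to 10 nM) and 80 μM L-tryptophan in HBSS. Decrease versus DMSO vehicle gave percent inhibition, then IC50.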

IDO1 in HeLa cells, sequence (P14902 whole entry): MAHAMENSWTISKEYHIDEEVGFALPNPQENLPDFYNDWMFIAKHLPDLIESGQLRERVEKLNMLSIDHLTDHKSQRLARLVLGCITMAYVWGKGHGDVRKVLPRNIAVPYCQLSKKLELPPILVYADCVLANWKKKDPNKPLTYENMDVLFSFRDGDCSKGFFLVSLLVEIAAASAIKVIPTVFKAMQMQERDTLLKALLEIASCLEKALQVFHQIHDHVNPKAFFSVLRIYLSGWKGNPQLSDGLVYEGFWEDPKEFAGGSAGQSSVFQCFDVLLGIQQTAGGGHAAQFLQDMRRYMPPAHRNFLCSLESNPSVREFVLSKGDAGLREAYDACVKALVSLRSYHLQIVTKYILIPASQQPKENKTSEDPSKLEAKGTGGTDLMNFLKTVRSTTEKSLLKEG
Human indoleamine 2,3-dioxygenase1 (hIDO1), sequence (P14902 whole entry): as above
Human TDO (hTDO)-transfected CHO-K1 cells, sequence (P48775 whole entry): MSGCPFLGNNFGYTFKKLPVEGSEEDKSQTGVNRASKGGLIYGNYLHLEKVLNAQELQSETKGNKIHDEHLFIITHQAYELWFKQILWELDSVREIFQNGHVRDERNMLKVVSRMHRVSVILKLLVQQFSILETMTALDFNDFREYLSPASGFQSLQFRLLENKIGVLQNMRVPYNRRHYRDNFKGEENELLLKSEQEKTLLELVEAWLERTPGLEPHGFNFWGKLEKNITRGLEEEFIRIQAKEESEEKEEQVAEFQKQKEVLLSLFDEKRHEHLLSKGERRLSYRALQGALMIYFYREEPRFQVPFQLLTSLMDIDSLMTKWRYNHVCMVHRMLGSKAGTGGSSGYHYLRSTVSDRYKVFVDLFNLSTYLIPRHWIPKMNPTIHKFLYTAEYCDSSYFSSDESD

Row | SMILES | IC50 [1] | IC50 (IDO1 in HeLa cells) | IC50 [2]
1 | Nc1sc2ccc(Cl)cc2c1Nc1cccc(C(F)(F)F)c1 [Compound 133, 5-Chloro-N^3-(3-(trifluoromethyl)phenyl)benzo[b]thiophene-2,3-diamine hydrochloride] | 200 to 1000 nM | 200 to 1000 nM | 500 to 2000 nM
2 | C#Cc1cccc(Nc2c(N)sc3ccccc23)c1 [Compound 137, N^3-(3-Ethynylphenyl)-1-benzothiophene-2,3-diamine] | 200 to 1000 nM | < 200 nM | > 2000 nM
3 | Cc1cccc(Nc2c(N)sc3ccccc23)c1C [Compound 138, N^3-(2,3-Dimethylphenyl)-1-benzothiophene-2,3-diamine] | > 1000 nM | 200 to 1000 nM | 500 to 2000 nM
4 | O=C(Nc1oc2cnccc2c1Nc1ccc(F)c(Cl)c1)OCc1ccccc1 [Compound 139, Benzyl (3-((3-chloro-4-fluorophenyl)amino)furo[2,3-c]pyridin-2-yl)carbamate] | > 1000 nM | > 1000 nM | 500 to 2000 nM
5 | N#Cc1ccc(-c2nccc3c(Nc4ccc(F)c(Cl)c4)c(N)oc23)cc1 [Compound 149, 4-(2-Amino-3-((3-chloro-4-fluorophenyl)amino)furo[2,3-c]pyridin-7-yl)benzonitrile] | < 200 nM | < 200 nM | 500 to 2000 nM
6 | NC(=O)c1ccc(-c2nccc3c(Nc4ccc(F)c(Cl)c4)c(N)oc23)cc1 [Compound 151, 4-(2-Amino-3-((3-chloro-4-fluorophenyl)amino)furo[2,3-c]pyridin-7-yl)benzamide] | < 200 nM | < 200 nM | 500 to 2000 nM
7 | COC(=O)c1ccc(-c2nccc3c(Nc4ccc(F)c(Cl)c4)c(N)oc23)cc1 [Compound 152, Methyl 4-(2-amino-3-((3-chloro-4-fluorophenyl)amino)furo[2,3-c]pyridin-7-yl)benzoate] | < 200 nM | < 200 nM | 500 to 2000 nM
8 | Nc1oc2c(-c3ccnc(N4CCOCC4)c3)nccc2c1Nc1ccc(F)c(Cl)c1 [Compound 154, N^3-(3-Chloro-4-fluorophenyl)-7-(2-morpholinopyridin-4-yl)furo[2,3-c]pyridine-2,3-diamine] | < 200 nM | < 200 nM | > 2000 nM

Second part, the molecule after the results:

Row | IC50 [1] | IC50 (IDO1 in HeLa cells) | IC50 [2] | SMILES
9 | < 200 nM | < 200 nM | 500 to 2000 nM | Nc1oc2c(-c3ccc(F)cc3)nccc2c1Nc1ccc(F)c(Cl)c1 [Compound 147, N^3-(3-Chloro-4-fluorophenyl)-7-(4-fluorophenyl)furo[2,3-c]pyridine-2,3-diamine]
10 | < 200 nM | < 200 nM | 500 to 2000 nM | Cn1cc(-c2nccc3c(Nc4ccc(F)c(Cl)c4)c(N)oc23)cn1 [Compound 148, N^3-(3-Chloro-4-fluorophenyl)-7-(1-methyl-1H-pyrazol-4-yl)furo[2,3-c]pyridine-2,3-diamine]
11 | < 200 nM | < 200 nM | < 500 nM | Nc1oc2c(I)nccc2c1Nc1ccc(F)c(Cl)c1 [Compound 153, N^3-(3-Chloro-4-fluorophenyl)-7-iodofuro[2,3-c]pyridine-2,3-diamine]
12 | < 200 nM | < 200 nM | 500 to 2000 nM | Cc1cc(-c2nccc3c(Nc4ccc(F)c(Cl)c4)c(N)oc23)ccn1 [Compound 158, N^3-(3-chloro-4-fluorophenyl)-7-(2-methylpyridin-4-yl)furo[2,3-c]pyridine-2,3-diamine]
13 | < 200 nM | < 200 nM | < 500 nM | Nc1oc2c(Br)nccc2c1Nc1ccc(F)c(Cl)c1 [Compound 159, 7-Bromo-N^3-(3-chloro-4-fluorophenyl)furo[2,3-c]pyridine-2,3-diamine]
14 | < 200 nM | < 200 nM | > 2000 nM | Cc1cc(-c2nccc3c(Nc4ccc(F)c(Cl)c4)c(N)oc23)cc(C)n1 [Compound 164, N^3-(3-Chloro-4-fluorophenyl)-7-(2,6-dimethylpyridin-4-yl)furo[2,3-c]pyridine-2,3-diamine]
